Measurements reported in ChEMBL document CHEMBL5620419, “Discovery of new Lenalidomide derivatives as potent and selective GSPT1 degraders” (Eur J Med Chem, 2023).
pEC50: −log10 of the molar value.

Target: Protein cereblon/Eukaryotic peptide chain release factor GTP-binding subunit ERF3A (Homo sapiens, UniProt P15170+Q96SW2)
Assay: PROTAC activity at CRBN/GSPT1 in human U-937 cells assessed as degradation of GSPT1 measured after 6 hrs by Western blot analysis
Type: cell-based

Sequence of Protein cereblon/Eukaryotic peptide chain release factor GTP-binding subunit ERF3A (Q96SW2 whole entry): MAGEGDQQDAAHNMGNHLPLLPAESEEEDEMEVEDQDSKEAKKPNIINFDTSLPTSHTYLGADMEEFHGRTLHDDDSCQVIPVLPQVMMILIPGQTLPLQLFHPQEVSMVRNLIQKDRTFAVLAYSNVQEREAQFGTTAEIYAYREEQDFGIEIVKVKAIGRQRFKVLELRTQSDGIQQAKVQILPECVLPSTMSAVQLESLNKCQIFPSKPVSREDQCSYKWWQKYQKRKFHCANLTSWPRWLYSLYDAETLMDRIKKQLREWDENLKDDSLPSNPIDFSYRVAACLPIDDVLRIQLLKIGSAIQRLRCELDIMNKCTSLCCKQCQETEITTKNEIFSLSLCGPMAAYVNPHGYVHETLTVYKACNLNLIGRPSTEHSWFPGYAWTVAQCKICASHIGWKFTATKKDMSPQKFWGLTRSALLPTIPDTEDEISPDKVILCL
Sequence of Protein cereblon/Eukaryotic peptide chain release factor GTP-binding subunit ERF3A (P15170 whole entry): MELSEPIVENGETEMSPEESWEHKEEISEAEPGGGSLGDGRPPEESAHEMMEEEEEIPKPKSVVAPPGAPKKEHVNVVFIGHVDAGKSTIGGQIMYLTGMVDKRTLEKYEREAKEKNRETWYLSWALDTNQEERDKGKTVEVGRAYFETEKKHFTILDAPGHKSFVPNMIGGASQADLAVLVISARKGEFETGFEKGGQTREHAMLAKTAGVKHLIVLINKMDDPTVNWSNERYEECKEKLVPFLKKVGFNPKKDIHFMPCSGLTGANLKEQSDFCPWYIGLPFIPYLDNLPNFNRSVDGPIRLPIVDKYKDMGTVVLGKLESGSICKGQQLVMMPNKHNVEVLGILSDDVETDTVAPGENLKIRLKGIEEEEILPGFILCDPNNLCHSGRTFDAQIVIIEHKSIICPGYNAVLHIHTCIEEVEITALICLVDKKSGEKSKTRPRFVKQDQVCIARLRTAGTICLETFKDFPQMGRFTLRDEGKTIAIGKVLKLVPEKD

Structure (SMILES)	pEC50
Cc1ccc(NC(=O)CCc2ccc3c(c2)C(=O)N(C2CCC(=O)NC2=O)C3=O)cc1Cl (stereo not drawn)	6.35
Cc1c(Cl)cc(NC(=O)CCc2ccc3c(c2)C(=O)N(C2CCC(=O)NC2=O)C3)cc1CN1CCC(N2CCOCC2)CC1 (stereo not drawn)	6.75
Cc1c(Cl)cc(NC(=O)CCc2ccc3c(c2)C(=O)N(C2CCC(=O)NC2=O)C3)cc1CN1CCOCC1 (stereo not drawn)	7.32
Cc1ccc(NC(=O)CCc2ccc3c(c2)C(=O)N(C2CCC(=O)NC2=O)C3)cc1Cl (stereo not drawn)	7.74
Cc1c(Cl)cc(NC(=O)CCc2ccc3c(c2)C(=O)N(C2CCC(=O)NC2=O)C3)cc1CN1CCN(C2COC2)CC1 (stereo not drawn)	6.66
Cc1ccc(NC(=O)CC(C)c2ccc3c(c2)C(=O)N(C2CCC(=O)NC2=O)C3)cc1Cl (stereo not drawn)	< 5.00
Cc1ccc(NC(=O)CNc2ccc3c(c2)C(=O)N(C2CCC(=O)NC2=O)C3)cc1Cl (stereo not drawn)	< 5.00
Cc1c(Cl)cc(NC(=O)CCc2ccc3c(c2)C(=O)N(C2CCC(=O)NC2=O)C3)cc1CN1CCN(C2CCOCC2)CC1 (stereo not drawn)	6.60
